In patent US20080140036A1, “Antimicrobial Composition” (priority 2004, published 2008):

Tested on: Candida Albicans
Assay: Franz cell bioassay, infected stratum corneum sheet, ATP assay
Format: cell-based
Settings: after 2 hours incubation, FIG. 6
Experimental: The concentration of organisms in suspension was determined by fluorescence technique and a viable count used for confirmation by conducting an ATP assay where ATP in cell lysate represents a measure for viable cells. Therefore, the number of viable cells after exposure to drug can be measured for drug activity and was used for suspension method or skin model.
Stratum corneum (SC) sheets were infected with microorganisms in-vitro and a Franz cell was set-up to provide more realistic conditions than agar plate test
A sample of Candida albicans (5×10^7) was dried on the stratum corneum sheet and PBS used as receiver fluid. The Micap formulations were used at 10% aqueous suspensions and the Micap formulations and Pevaryl® were applied to the stratum corneum sheet and incubated at 37° C. The reaction was stopped after set time by dismantling the Franz cell and transferring the stratum corneum into TCA. ATP assay was then carried out on the cell lysate to determine activity.
Compound CCO [20% ethanol, ethanol] has an ATP remaining of 75%.

Tested on: not given
Assay: not given
Settings: cited from earlier work
For CCCCCCCCCC [Decane], the “logP(o/w)” value is given as 5.3. In the case of CCc1ccc(O)c(OC)c1 [4-ethyl-2-methoxy phenol], the “logP(o/w)” value is listed as 2.4. In the case of C=CC(C)(CCC=C(C)C)OC(=O)CCCCC (centres unmarked) [1,5-dimethyl-1-vinyl-4-hexenyl hexanoate], the “logP(o/w)” value is given as 4.5. In the case of CCCCCCCCCCCCCC [Tetradecane], the “logP(o/w)” value is listed as 7.2. For COC(=O)CCCCC(=O)OC [Dimethyl adipate], the “logP(o/w)” value is listed as 1.4. For CCCCCCCCOC(C)=O [octyl acetate], the “logP(o/w)” value is listed as 3.3. In the case of CCOC(=O)CC(C)C [ethyl 3-methylbutanoate], the “logP(o/w)” value is listed as 1.8. For CCCCCCCCC [Nonane], the “logP(o/w)” value is listed as 4.8. For Cc1cccc(I)c1 [3-Iodotoluene], the “logP(o/w)” value is given as 3.7. For Fc1cc(F)cc(F)c1 [1,3,5-Trifluorobenzene], the “logP(o/w)” value is given as 2.6. In the case of CCCCCCCO [Micap 1-Heptanol, 1-Heptanol], the “logP(o/w)” value is given as 3.1. For CCCCCC1CCCC(=O)O1 (centres unmarked) [Micap 5-decanolide, 5-decanolide], the “logP(o/w)” value is given as 3.1. For CC/C=C\CCOC(=O)C(C)CC (centres unmarked) [(Z)-3-hexenyl 2-methylbutanoate], the “logP(o/w)” value is given as 2.8. For CCCCCC(=O)OCC [ethyl hexanoate], the “logP(o/w)” value is listed as 2.3. In the case of Fc1cccc(F)c1 [1,3-Difluorobenzene], the “logP(o/w)” value is listed as 2.4. For CC(=O)OCC(COC(C)=O)OC(C)=O [triacetin], the “logP(o/w)” value is listed as 0.4. For CC/C=C\CCOC(=O)CCC [(Z)-3-hexenyl butanoate], the “logP(o/w)” value is listed as 2.4. In the case of CCCCCCCCC(=O)OCC [ethyl nonanoate], the “logP(o/w)” value is given as 3.7. For CCCCCC(C)=O [heptan-2-one], the “logP(o/w)” value is given as 1.9. In the case of CC/C=C/CC(=O)OCC [ethyl (E)-3-hexenoate], the “logP(o/w)” value is given as 1.7. In the case of CC(C)=CC(=O)OCCc1ccccc1 [2-phenylethyl 3-methyl-2-butenoate], the “logP(o/w)” value is given as 2.7. In the case of CCCCCCCCO [octanol], the “logP(o/w)” value is listed as 2.8. In the case of CC/C=C\CCOC(C)=O [(Z)-3-hexenyl acetate], the “logP(o/w)” value is given as 1.5. In the case of CCCCCCCCOC(=O)C(C)C [octyl isobutyrate], the “logP(o/w)” value is listed as 4.2. For CC(C)CCN [3-methyl butylamine], the “logP(o/w)” value is given as 1.1. For CCCCCCC(C)=O [octan-2-one], the “logP(o/w)” value is given as 2.3. For CCCCCCCC1CCCC(=O)O1 (racemic) [(+−)-5-dodecanolide], the “logP(o/w)” value is listed as 4.0. For CCCSSCCC [dipropyl disulfide], the “logP(o/w)” value is listed as 3.7. For CCCCCCCCN1CCCC1=O [1-octyl-2-pyrrolidinone], the “logP(o/w)” value is listed as 3.3. For CC(C)c1ccccc1O [2-isopropyl phenol], the “logP(o/w)” value is listed as 2.7. In the case of CCCCC(C)C(=O)O (centres unmarked) [2-methyl hexanoic acid], the “logP(o/w)” value is listed as 2.1.
